{"source": "patent US20230265069A1", "about": "“Small Molecule Inhibitors That Block the Budding of Enveloped Viruses” (priority 2020, published 2023)", "key": {"HSV-2": {"test_system": "HSV-2", "test": "HSV-2 release from infected Vero cells, plaque assay", "settings": "for EC50: read-out: EC50 (μM) Inhibition of HSV-2 Budding at 24 h"}, "HIV-1": {"test_system": "HIV-1", "settings": "293T cells in culture; cited from earlier work"}, "[1]": {"molecular_target": "T1, Tsg101-UEV (Tsg101 amino acids 1-145) (Homo sapiens, UniProt Q99816)", "T1 sequence (Q99816 1-145)": "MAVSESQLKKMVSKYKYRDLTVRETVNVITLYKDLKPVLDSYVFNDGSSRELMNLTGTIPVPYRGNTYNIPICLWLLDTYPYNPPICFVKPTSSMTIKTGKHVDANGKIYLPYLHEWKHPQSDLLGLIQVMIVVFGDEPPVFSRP", "test": "Fluorescence thermal shift (FTS) assay, binding to Tsg101-UEV", "settings": "FTS dose response, result in words", "protocol": "The fluorescence-based thermal shift assay is based on the observation that a protein unfolds upon heating, exposing the hydrophobic residues within its tertiary structure. The unfolding temperature (Tm) is determined by the protein's primary sequence and solution environment. The FTS assay uses a fluorescent dye sensitive to a hydrophobic environment to probe protein stability and its modulation by small molecule ligands. The dye has a low fluorescence quantum yield when in a polar environment. Once in contact with the hydrophobic core normally buried within a folded protein that has become exposed during the thermal unfolding (melting) process, the quantum yield of the dye increases, thus providing a reporting signal. Furthermore, a protein's stability can be affected by ligand binding, resulting in an increase or decrease in its melting temperature. FTS assay uses the Tm shift upon binding of a ligand to identify hit compounds for drug discovery.\nWe screened chemical compounds using a fluorescence thermal shift (FTS) assay (27, 28) to identify small molecules that bind directly to a truncated form of Tsg101 (amino acids 1-145) which contains the Ubiquitin E2 variant (UEV) ubiquitin-binding domain (FIG. 1A, 1B, 1C). […] This truncated Tsg101, called Tsg101-UEV, was used because full-length Tsg101 has significant solubility issues in aqueous solution. Tsg101 is an adaptor protein and thus lacks a readily deployable functional assay, making FTS a tractable approach to identify interacting compounds. FTS monitors protein thermal denaturation using SYPRO® Orange, a dye which fluoresces when bound to hydrophobic surfaces, which allows monitoring of the changes in hydrophobic surface exposure during protein denaturation (27). Since ligand binding affects protein thermal stability, it can be detected through modulation of protein thermal denaturation (melting) as a shift in melting temperature (Tm). Tsg101-UEV has a well-defined melting curve suitable for FTS. We used the FTS assay to identify compounds that bind to Tsg101-UEV.\nFluorescence thermal shift (FTS) screening to identify small molecule binding to Tsg101-UEV. FTS using thermal shift elicited by the small molecule binding effect to protein stability. FTS monitors protein thermal denaturation using environment-sensitive dye Sypro® Orange which fluoresces when bound to hydrophobic surfaces, taking advantage of the changes in hydrophobic surface exposure in protein denaturation. Discovery of small molecule binding to target protein utilizes the observation that ligand binding affects protein thermal stability, and therefore can be detected through a shift in the protein's thermal denaturation (melting) temperature (Tm). We have employed FTS to reveal changes in thermodynamic properties of Tsg101 elicited by its interaction with a small molecule. […] A fluorescence dye Sypro® Orange (Invitrogen) was used for assay detection. The dye is excited at 473 nm and has a fluorescence emission at 610 nm. The dye binds to hydrophobic regions of a protein that are normally buried in a native protein structure. […] The Tsg101 fragment was premixed at a concentration of 2 μM with a 5× concentration of Sypro® Orange in HEPES buffer (100 mM HEPES, 150 mM NaCl, pH 7.5). Then 10 μl of the protein-dye mix was added to an assay plate and 10 to 50 nanoliters of compound, equal to 10 to 50 μM, were added with an acoustic transfer robot Echo550 (Labcyte, CA)."}, "[2]": {"settings": "HSV-2 infected Vero cells, virus released into media, plaque assay"}}, "note": "Like-named read-outs stand apart in the source and are kept apart here."}
{"compound": "4-desmethoxy-omeprazole", "values": [{"measurement": "EC50", "setting": "HSV-2; [2]", "value": 52, "unit": "µM"}]}
{"compound": "Esomeprazole", "values": [{"measurement": "Inhibition of release of infectious HIV-1 from 293T cells (earlier report)", "setting": "HIV-1", "value": "quantitatively inhibit"}, {"measurement": "EC50", "setting": "HSV-2; [2]", "value": 140, "unit": "µM"}]}
{"compound": "5-methoxy-2[[(3,5-dimethyl-4-methoxy-pridin-2-yl-N-oxide)methyl]sulfinyl]-1H-benzimidazole [O-omeprazole]", "values": [{"measurement": "EC50 (μM) Inhibition of HSV-2 Budding at 24 h", "setting": "HSV-2; [2]", "value": "inactive"}, {"measurement": "Thermal shift (Tm shift) of Tsg101-UEV caused by compound", "setting": "[1]", "value": "did not cause a detectable thermal shift"}]}
{"compound": "COc1ccc2[nH]c([S+]([O-])Cc3ncc(C)c(OC)c3C)nc2c1", "note": "(stereo not shown) [Omeprazole]", "values": [{"measurement": "EC50", "setting": "HSV-2; Human alphaherpesvirus 2, Vero, 24 h", "value": 78, "unit": "µM"}]}
{"compound": "Dexlansoprazole", "values": [{"measurement": "EC50", "setting": "HSV-2; [2]", "value": 76, "unit": "µM"}]}
